The target in this assay is T1, BRM (Homo sapiens, UniProt P51531).
T1 construct: In-Cell Western Screen of BRM Degradation in SW1573 Cells; endogenous in cells; host or cells: SW1573
Nature of the assay: In-cell Western screen of BRM degradation in SW1573 cells (Dmax and DC50). It counts as cell-based. The procedure, abridged: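 SW1573 cells were treated overnight (18-20 hours) with compound at 0.1% final DMSO. They were then PFA-fixed, permeabilised with Triton X-100 and immunostained with 800 nm/680 nm secondary antibodies. BRM signal was quantified by LI-COR in-cell Western imaging to derive Dmax and DC50.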

The mark [1] stands for this setting: BRM degradation, SW1573 cells, read-out: DC50.
The mark [2] stands for this setting: BRM degradation, SW1573 cells, tested at the top concentration of between 0.3 and 10 μM, read-out: Dmax (%) (% degraded).

Read-outs that look alike come from different tables or passages of the source.

T1 sequence (P51531 whole entry): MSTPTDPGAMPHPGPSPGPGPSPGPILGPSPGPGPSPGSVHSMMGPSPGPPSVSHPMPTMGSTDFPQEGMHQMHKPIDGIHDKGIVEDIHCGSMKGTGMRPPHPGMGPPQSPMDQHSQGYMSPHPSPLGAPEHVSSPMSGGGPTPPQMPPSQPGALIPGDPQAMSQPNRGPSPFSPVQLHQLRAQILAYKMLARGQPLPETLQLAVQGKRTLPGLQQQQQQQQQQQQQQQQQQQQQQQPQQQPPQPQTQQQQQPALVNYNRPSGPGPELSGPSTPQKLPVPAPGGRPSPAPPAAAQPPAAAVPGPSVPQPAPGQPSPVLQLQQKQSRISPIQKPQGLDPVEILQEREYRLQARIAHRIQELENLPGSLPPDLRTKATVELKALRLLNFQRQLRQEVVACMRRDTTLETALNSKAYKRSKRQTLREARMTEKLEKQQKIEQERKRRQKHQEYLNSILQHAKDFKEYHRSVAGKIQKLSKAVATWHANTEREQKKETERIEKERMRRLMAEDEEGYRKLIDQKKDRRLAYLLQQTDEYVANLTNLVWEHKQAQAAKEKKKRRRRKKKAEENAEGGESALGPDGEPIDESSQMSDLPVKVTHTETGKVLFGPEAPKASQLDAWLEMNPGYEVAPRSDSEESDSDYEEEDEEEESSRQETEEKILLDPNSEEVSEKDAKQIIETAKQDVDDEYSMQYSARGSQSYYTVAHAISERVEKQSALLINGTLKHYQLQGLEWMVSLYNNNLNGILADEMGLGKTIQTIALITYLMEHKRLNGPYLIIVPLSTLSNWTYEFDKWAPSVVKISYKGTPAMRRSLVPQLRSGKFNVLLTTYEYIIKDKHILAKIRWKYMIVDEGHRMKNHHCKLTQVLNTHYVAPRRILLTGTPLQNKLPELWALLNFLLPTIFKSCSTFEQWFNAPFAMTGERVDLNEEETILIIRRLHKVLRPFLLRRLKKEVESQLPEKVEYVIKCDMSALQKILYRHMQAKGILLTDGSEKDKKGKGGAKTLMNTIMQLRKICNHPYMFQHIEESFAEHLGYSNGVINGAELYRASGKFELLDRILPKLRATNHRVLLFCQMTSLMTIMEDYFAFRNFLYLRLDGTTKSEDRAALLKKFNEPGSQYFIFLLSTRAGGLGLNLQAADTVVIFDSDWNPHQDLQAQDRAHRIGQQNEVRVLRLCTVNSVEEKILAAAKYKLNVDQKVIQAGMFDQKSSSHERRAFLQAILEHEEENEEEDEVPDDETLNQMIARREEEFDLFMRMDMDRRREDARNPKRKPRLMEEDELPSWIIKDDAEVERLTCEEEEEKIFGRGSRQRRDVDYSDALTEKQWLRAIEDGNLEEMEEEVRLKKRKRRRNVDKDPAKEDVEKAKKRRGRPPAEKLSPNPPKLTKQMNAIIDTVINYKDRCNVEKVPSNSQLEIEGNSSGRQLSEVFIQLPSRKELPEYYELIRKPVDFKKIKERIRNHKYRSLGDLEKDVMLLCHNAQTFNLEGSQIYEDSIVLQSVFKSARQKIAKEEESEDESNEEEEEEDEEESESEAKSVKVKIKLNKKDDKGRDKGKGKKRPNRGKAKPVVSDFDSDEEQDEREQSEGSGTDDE

By Dmax is commonly meant the greatest extent of degradation seen. As a reminder, the DC50 is the concentration giving 50% degradation. On to `Cc1ncsc1-c1ncc([C@H](C)NC(=O)[C@@H]2C[C@@H](O)CN2C(=O)[C@@H](c2cc(OCCN3CCC(O[C@H]4C[C@H](Oc5cc(N6C7CCC6CN(c6cc(-c8ccccc8O)nnc6N)C7)ccn5)C4)CC3)no2)C(C)C)cn1` [compound 430, (2S,4R)-1-((2R)-2-(3-(2-(4-((1r,3R)-3-((4-(3-(3-amino-6-(2-hydroxyphenyl)pyridazin-4-yl)-3,8-diazabicyclo[3.2.1]octan-8-yl)pyridin-2-yl)oxy)cyclobutoxy)piperidin-1-yl)ethoxy)isoxazol-5-yl)-3-methylbutanoyl)-4-hydroxy-N-((S)-1-(2-(4-methylthiazol-5-yl)pyrimidin-5-yl)ethyl)pyrrolidine-2-carboxamide], for which the Dmax (SW1573, % degraded, when tested at the top concentration of between 0.3 and 10 μM, read-out: BRM Dmax (%)) was greater than 75%. For the same compound, for the setting “degradation of BRM, read-out: BRM DC50”, the DC50 fell in the range of 2.5 to 10 nM.
`Cc1ncsc1-c1ccc([C@H](C)NC(=O)[C@@H]2C[C@@H](O)CN2C(=O)C(c2cc(N3CCC(C(C)(C)N4CCC(O[C@H]5C[C@H](Oc6cc(N7C8CCC7CN(c7cc(-c9ccccc9O)nnc7N)C8)ccn6)C5)CC4)CC3)no2)C(C)C)cc1` (stereo partly drawn) [compound 692, (2S,4R)-1-(2-(3-(4-(2-(4-((1r,3r)-3-((4-(3-(3-amino-6-(2-hydroxyphenyl)pyridazin-4-yl)-3,8-diazabicyclo[3.2.1]octan-8-yl)pyridin-2-yl)oxy)cyclobutoxy)piperidin-1-yl)propan-2-yl)piperidin-1-yl)isoxazol-5-yl)-3-methylbutanoyl)-4-hydroxy-N-((S)-1-(4-(4-methylthiazol-5-yl)phenyl)ethyl)pyrrolidine-2-carboxamide]: under setting [1], the half-maximal degradation concentration (DC50) is less than 2.5 nM. The greatest degradation seen (Dmax) (BRM degradation, SW1573 cells, read-out: Dmax (% degraded)) is greater than 75%.
Take `CC(C)[C@@H](C(=O)N1C[C@H](O)C[C@H]1C(=O)N[C@@H](C)c1ccc(-n2ccnc2CO)cc1)c1cc(OCC#Cc2ccc(O[C@H]3C[C@H](Oc4cc(N5C6CCC5CN(c5cc(-c7ccccc7O)nnc5N)C6)ccn4)C3)cn2)no1` [compound 285, (2S,4R)-1-((2R)-2-(3-((3-(5-((1r,3R)-3-((4-(3-(3-amino-6-(2-hydroxyphenyl)pyridazin-4-yl)-3,8-diazabicyclo[3.2.1]octan-8-yl)pyridin-2-yl)oxy)cyclobutoxy)pyridin-2-yl)prop-2-yn-1-yl)oxy)isoxazol-5-yl)-3-methylbutanoyl)-4-hydroxy-N-((S)-1-(4-(2-(hydroxymethyl)-1H-imidazol-1-yl)phenyl)ethyl)pyrrolidine-2-carboxamide]: the DC50 under setting [1] was less than 2.5 nM. The Dmax under setting [2] is greater than 75%.
As for `Cc1ncsc1-c1ccc([C@H](C)NC(=O)[C@@H]2C[C@@H](O)CN2C(=O)[C@@H](c2cc(OCCC3CCN(C[C@H]4C[C@H](Oc5cc(N6C7CCC6CN(c6cc(-c8ccccc8O)nnc6N)C7)ccn5)C4)CC3)no2)C(C)C)cn1` [compound 288, (2S,4R)-1-((2R)-2-(3-(2-(1-(((1r,3R)-3-((4-(3-(3-amino-6-(2-hydroxyphenyl)pyridazin-4-yl)-3,8-diazabicyclo[3.2.1]octan-8-yl)pyridin-2-yl)oxy)cyclobutyl)methyl)piperidin-4-yl)ethoxy)isoxazol-5-yl)-3-methylbutanoyl)-4-hydroxy-N-((S)-1-(6-(4-methylthiazol-5-yl)pyridin-3-yl)ethyl)pyrrolidine-2-carboxamide], the DC50 under setting [1] was less than 2.5 nM. Also, under setting [2], the Dmax was greater than 75%.
`Cc1ncsc1-c1ccc([C@@H](NC(=O)[C@@H]2C[C@@H](O)CN2C(=O)[C@H](c2cc(OCCN3CCN(CCOc4cc(N5C6CCC5CN(c5cc(-c7ccccc7O)nnc5N)C6)ccn4)CC3)no2)C(C)C)C(=O)N(C)c2ccccc2)cc1` [compound 258, (2S,4R)-1-((2S)-2-(3-(2-(4-(2-((4-(3-(3-amino-6-(2-hydroxyphenyl)pyridazin-4-yl)-3,8-diazabicyclo[3.2.1]octan-8-yl)pyridin-2-yl)oxy)ethyl)piperazin-1-yl)ethoxy)isoxazol-5-yl)-3-methylbutanoyl)-4-hydroxy-N-((R)-2-(methyl(phenyl)amino)-1-(4-(4-methylthiazol-5-yl)phenyl)-2-oxoethyl)pyrrolidine-2-carboxamide]: under setting [1], the DC50 was greater than 30 nM.

For the origin of these results see patent US12539292B2, “BRM targeting compounds and associated methods of use” (Arvinas Operations, Inc., priority 2018, dated 2026).
